The results in this text go back to ChEMBL document CHEMBL1145712, “Two new lignans with activity against influenza virus from the medicinal plant Rhinacanthus nasutus” (J Nat Prod, 1997).

In brackets after ≈: the same amount, converted by molar mass. Some results are limits rather than exact numbers.

For one series, the system named is Human alphaherpesvirus 2. The series can be described thus: Antiviral activity against HSV2 MS in african green monkey Vero cells by viral cytopathic effect assay. Type of series: functional, organism-based. To be noted: Human alphaherpesvirus 2, MS.
Another series concerns Vero. The experiment in a line: Cytotoxicity against african green monkey Vero cells by MTT assay. The format is cell-based. Particulars: Chlorocebus sabaeus. In general terms: Formazan colour is commonly taken as a measure of viable cells.
Series [1] is described as follows: Selectivity index, ratio of IC50 for african green monkey Vero cells to EC50 for HSV2 MS.
Series [2] concerns Influenza A virus. The experiment in a line: Antiviral activity against influenza A virus NJH1N1 in MDCK cells by hemadsorption-inhibition assay. The format is functional, organism-based.
A further series concerns MDCK. The experiment in a line: Cytotoxicity against MDCK cells by neutral red assay. The format is cell-based. To be noted: Canis lupus familiaris.
A short description of series [3]: Selectivity index, ratio of IC50 for MDCK cells to EC50 for influenza A virus NJH1N1. Type of series: toxicity, cell-based. To be noted: dog, read-out: Ratio IC50/EC50.
Series [4] has as its system Influenza A virus. The series can be described thus: Antiviral activity against influenza A virus NWS33 in MDCK cells assessed as inhibition of viral cytopathic effect by neutral red assay. Type of series: functional, organism-based. In general terms: Cytopathic effects are the visible damage that an infection or toxin causes in cultured cells.
Series [5] in a line: Selectivity index, ratio of IC50 for MDCK cells to EC50 for influenza A virus NWS33. The format is toxicity, cell-based. To be noted: dog, read-out: Ratio IC50/EC50.

What is called EC50 is the concentration at which the effect is half-maximal. As usually defined, the IC50 is the concentration that inhibits the measured activity by half.

Regarding `Nc1nc2c(ncn2COCCO)c(=O)[nH]1` [ACYCLOVIR], in the series on Human alphaherpesvirus 2, the EC50 came out at 1.5 µg/mL (≈ 6.66 µM). The IC50 in the series on Vero was more than 100 µg/mL. For the same compound, the “Ratio IC50/EC50” value in series [1] is more than 60.

Consider `NC12CC3CC(CC(C3)C1)C2` [AMANTADINE], for which, in the series on Influenza A virus [2], the EC50 came to 0.054 µg/mL (≈ 0.357 µM). This compound displayed an IC50 in the series with MDCK of 56 µg/mL (≈ 370 µM). For the same compound, in series [3], the selectivity ratio came to 1000.

As for `COC(=O)/C(=C/c1ccc2c(c1)OCO2)C(Cc1cc(OC)c2c(c1)OCO2)C(=O)OC` (stereo unspecified) [RHINACANTHIN E], the EC50 turned out to be 1.7 µg/mL (≈ 3.84 µM) with Influenza A virus [2] and 7.4 µg/mL (≈ 16.7 µM) with Influenza A virus [4]. Moreover, the 50% inhibitory concentration (IC50) with MDCK amounted to 44 µg/mL (≈ 99.5 µM); with Vero it was 17 µg/mL (≈ 38.4 µM). Moreover, the selectivity ratio in series [3] was determined as 26; in series [5] it was 15.

`COC(=O)C(Cc1ccc2c(c1)OCO2)C(Cc1cc(OC)c2c(c1)OCO2)C(=O)OC` (stereo unspecified) [RHINACANTHIN F]: the figures for the EC50 with Influenza A virus [2] and in the series on Influenza A virus [4] were less than 0.94 µg/mL and 3.1 µg/mL (≈ 6.98 µM), respectively. Also, the figures for the IC50 with MDCK and in the series with Vero were 17 µg/mL (≈ 38.3 µM) and 4.4 µg/mL (≈ 9.9 µM), respectively. Further, the values for the selectivity ratio in series [3] and in series [5] were more than 18 and 6.8, respectively.

For `NC(=O)c1ncn([C@@H]2O[C@H](CO)[C@@H](O)[C@H]2O)n1` [RIBAVIRIN], the EC50 with Influenza A virus [4] was 3.7 µg/mL (≈ 15.2 µM). In the series with MDCK, this compound returned an IC50 of more than 200 µg/mL. Also, the selectivity ratio in series [5] is more than 59.
